In patent US8389744B1, “TTPO (5 6,7-trithiapentacene-13-one) and its derivatives: a new class of thermally stable, photooxidatively resistant organic semiconductors” (University of New Hampshire, priority 2011, dated 2013):

Legend:
[1] = Thermal stability; format: physicochemical; conditions: stable up to and including this temperature
[2] = Solubility in organic solvents; format: physicochemical

thermal stability [1]: ≤ 450 °C | solubility [2]: soluble in a variety of organic solvents
SMILES: O=C1c2cc3ccccc3c3c2C2=S(S3)Sc3c2c1cc1ccccc31 [TTPO, 5,6,7-Trithiapentacene-13-one]
